According to PMC8027256, “Epigallocathechin-O-3-Gallate Inhibits Trypanothione Reductase of Leishmania infantum, Causing Alterations in Redox Balance and Leading to Parasite Death” (Frontiers in Cellular and Infection Microbiology, 2021):

Target: T1, trypanothione reductase (TR; LiTR) (Leishmania infantum, UniProt A4HSF7)
T1 construct: gene TRYR; Full-length LiTR with carboxy-terminal six-histidine tag (LiTR.6His), expressed in E. coli
Experiment: DTNB-coupled trypanothione reductase assay with purified recombinant enzyme; Lineweaver-Burk and Dixon plot analysis (IC50 […] also reported)
Format: biochemical

T1 sequence (A4HSF7 1-491): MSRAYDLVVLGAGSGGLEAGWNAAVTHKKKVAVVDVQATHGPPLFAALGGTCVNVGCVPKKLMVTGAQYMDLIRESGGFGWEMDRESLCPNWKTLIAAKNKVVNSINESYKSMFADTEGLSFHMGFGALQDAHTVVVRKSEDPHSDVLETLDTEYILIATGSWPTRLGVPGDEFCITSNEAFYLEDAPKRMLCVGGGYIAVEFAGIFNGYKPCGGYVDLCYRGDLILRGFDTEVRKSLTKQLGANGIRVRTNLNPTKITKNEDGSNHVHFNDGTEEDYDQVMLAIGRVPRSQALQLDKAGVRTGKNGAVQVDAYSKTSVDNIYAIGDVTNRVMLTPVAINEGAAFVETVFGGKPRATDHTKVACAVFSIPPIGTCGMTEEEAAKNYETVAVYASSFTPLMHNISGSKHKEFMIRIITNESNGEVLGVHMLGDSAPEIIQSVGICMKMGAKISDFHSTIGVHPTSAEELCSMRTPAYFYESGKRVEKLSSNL

Structure (SMILES): O=C(O[C@@H]1Cc2c(O)cc(O)cc2O[C@@H]1c1cc(O)c(O)c(O)c1)c1cc(O)c(O)c(O)c1 [(-)-Epigallocatechin 3-O-gallate]
- Ki: 294 ± 66.3 µM
